Laboratory results taken from the supplement of paper PMC10627819.

Experiments:
S. aureus Newman [1] = experiment: fitness (endpoint OD595 vs no drug) (fraction); higher = more growth
Summary of the method: (§1)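 Fitness is computed from the optical density at which cultures reach stationary phase, divided by the robust mean of no-drug control wells. Any value above 1 is set to 1. Cultures started at OD595 0.01 in 384-well plates with TSB, LB Lennox or CY at 37 °C, and OD595 was read every 30 min for 14 h against a first-reading background.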

B. subtilis 168 [2] = experiment: Bliss interaction score (quartile over a dose matrix) (fitness difference); higher = more antagonism (negative = synergy)
Summary of the method: (§2)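 Fitness was derived from optical density at entry into stationary phase, divided by the robust mean of the no-drug wells on the same plate. That reading was taken as OD595, and the ratio was capped at 1. Single-drug fitness was inferred from the combination data. The Bliss score, observed fitness minus the expected product of single-drug fitness, was summarised as quartiles over technical, biological and donor/recipient replicates.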

S. aureus DSM 20231 = experiment: as above
Summary of the method: as §2

S. pneumoniae D39V [3] = experiment: as above
Summary of the method: as §2

S. aureus Newman [4] = experiment: as above
Summary of the method: as §2

B. subtilis 168 [5] = experiment: fitness (endpoint OD595 vs no drug) (fraction); higher = more growth; settings: main component drawn
Summary of the method: as §1

S. pneumoniae D39V [6] = experiment: as above; settings: main component drawn
Summary of the method: as §1
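Wherever Bliss interaction score (quartile over a dose matrix) is given: first quartile when negative (synergy) and third quartile when positive (antagonism).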

O=C(N[C@H](CO)[C@H](O)c1ccc([N+](=O)[O-])cc1)C(Cl)Cl [Chloramphenicol] + C/C(=C\C(=O)OCCCCCCCCC(=O)O)C[C@@H]1OC[C@H](C[C@@H]2O[C@H]2[C@@H](C)[C@H](C)O)[C@@H](O)[C@H]1O [Pseudomonic acid]
fitness, S. aureus Newman [1], one replicate
Settings | first compound 0.75 µg/mL | first compound 1.5 µg/mL | first compound 3 µg/mL
partner 0.0313 µg/mL | 0.0723 | 0.0644 | 0.0687
partner 0.0625 µg/mL | 0.0337 | 0.0381 | 0.0484
partner 0.125 µg/mL | 0.062 | 0.0655 | 0.0652

Settings | Bliss interaction score
B. subtilis 168 [2] | 0.0522
S. aureus DSM 20231 | 0.0264
S. aureus Newman [4] | 0.0532
S. pneumoniae D39V [3] | 0.172

O=C(N[C@H](CO)[C@H](O)c1ccc([N+](=O)[O-])cc1)C(Cl)Cl [Chloramphenicol] + CN(C)c1cc(NC(=O)CNC(C)(C)C)c(O)c2c1C[C@H]1C[C@H]3[C@H](N(C)C)C(O)=C(C(N)=O)C(=O)[C@@]3(O)C(O)=C1C2=O [Tigecycline]
fitness, S. aureus Newman [1]
Settings | first compound 0.75 µg/mL | first compound 1.5 µg/mL | first compound 3 µg/mL
partner 0.039 µg/mL | 0.789 | 0.509 | 0.216
partner 0.078 µg/mL | 0.831 | 0.559 | 0.2
partner 0.156 µg/mL | 0.829 | 0.58 | 0.213

Settings | Bliss interaction score
B. subtilis 168 [2] | -0.0487
S. aureus DSM 20231 | -0.0788
S. aureus Newman [4] | -0.0583
S. pneumoniae D39V [3] | -0.114

O=C(N[C@H](CO)[C@H](O)c1ccc([N+](=O)[O-])cc1)C(Cl)Cl [Chloramphenicol] + CN[C@@H]1[C@H](O[C@H]2[C@H](O[C@H]3[C@H](O)[C@@H](O)[C@H](N=C(N)N)[C@@H](O)[C@@H]3N=C(N)N)O[C@@H](C)[C@]2(O)C=O)O[C@@H](CO)[C@H](O)[C@H]1O [Streptomycin]
fitness, S. aureus Newman [1]
Settings | first compound 0.75 µg/mL | first compound 1.5 µg/mL | first compound 3 µg/mL
partner 1 µg/mL | 0.755 | 0.537 | 0.213
partner 2 µg/mL | – | 0.465 | 0.177
partner 4 µg/mL | – | – | 0.128

Settings | Bliss interaction score
B. subtilis 168 [2] | 0.144
S. aureus DSM 20231 | 0.0438
S. aureus Newman [4] | -0.0754
S. pneumoniae D39V [3] | -0.0647

O=C(N[C@H](CO)[C@H](O)c1ccc([N+](=O)[O-])cc1)C(Cl)Cl [Chloramphenicol] + O=C(O)c1cn(C2CC2)c2cc(N3CCNCC3)c(F)cc2c1=O [Ciprofloxacin]
fitness, S. aureus Newman [1]
Settings | first compound 0.75 µg/mL | first compound 1.5 µg/mL | first compound 3 µg/mL
partner 0.0375 µg/mL | 0.644 | 0.487 | 0.154
partner 0.075 µg/mL | 0.621 | 0.496 | 0.182
partner 0.15 µg/mL | 0.155 | 0.212 | –

Settings | Bliss interaction score
B. subtilis 168 [2] | 0.161
S. aureus DSM 20231 | 0.0505
S. aureus Newman [4] | 0.126
S. pneumoniae D39V [3] | -0.0621

O=C(O[C@@H]1Cc2c(O)cc(O)cc2O[C@@H]1c1cc(O)c(O)c(O)c1)c1cc(O)c(O)c(O)c1 [EGCG] + CCC(C)C1C(=O)NC(=C)C(=O)NC(C(=O)NC(CSCC(C(=O)N1)NC(=O)/C(=C/C)/NC(=O)C(C(C)CC)N)C(=O)NC2C(SCC(NC(=O)CNC(=O)C3CCCN3C2=O)C(=O)NC(CCCCN)C(=O)NC4C(SCC(NC(=O)CNC(=O)C(NC(=O)C(NC(=O)C(NC(=O)CNC4=O)C)CC(C)C)CCSC)C(=O)NC(CC(=O)N)C(=O)NC(CCSC)C(=O)NC(CCCCN)C(=O)NC5C(SCC6C(=O)NC(C(=O)NC(CSC(C(C(=O)N6)NC(=O)C(NC5=O)C)C)C(=O)NC(CO)C(=O)NC(C(C)CC)C(=O)NC(CC7=CN=CN7)C(=O)NC(C(C)C)C(=O)NC(=C)C(=O)NC(CCCCN)C(=O)O)CC8=CN=CN8)C)C)C)CC(C)C [Nisin]
fitness
Settings | first compound 6.25 µg/mL | first compound 12.5 µg/mL | first compound 25 µg/mL | first compound 50 µg/mL
B. subtilis 168 [5], partner 0.5 µg/mL | 0.853 | 0.761 | – | –
B. subtilis 168 [5], partner 1 µg/mL | 0.813 | 0.619 | – | –
B. subtilis 168 [5], partner 2 µg/mL | 0.432 | 0.308 | 0.21 | –
S. pneumoniae D39V [6], partner 0.4275 µg/mL | – | 0.965 | 0.967 | 0.982
S. pneumoniae D39V [6], partner 0.855 µg/mL | – | 0.989 | ≥ 1 | ≥ 1
S. pneumoniae D39V [6], partner 1.6 µg/mL | – | 0.0156 | 0.0307 | –
S. pneumoniae D39V [6], partner 1.71 µg/mL | – | 0.105 | 0.131 | 0.244
S. pneumoniae D39V [6], partner 3.2 µg/mL | – | 0.0612 | – | –
S. pneumoniae D39V [6], partner 6.4 µg/mL | – | 0.08 | 0.046 | 0.0006

fitness, B. subtilis 168 [5], one replicate
Settings | partner 1.25 µg/mL | partner 1.6 µg/mL | partner 2.5 µg/mL | partner 3.2 µg/mL | partner 4 µg/mL | partner 5 µg/mL | partner 6.4 µg/mL | partner 8 µg/mL | partner 16 µg/mL
first compound 6.25 µg/mL | ≥ 1 | 0.616 | 0.682 | 0.0933 | 0.0068 | 0.154 | 0.0135 | 0.069 | 0.0181
first compound 12.5 µg/mL | 0.625 | 0.199 | 0.282 | 0.0301 | 0.0461 | 0.0396 | 0.0233 | 0.0351 | 0.0262
first compound 25 µg/mL | 0.247 | 0.0657 | 0.0742 | 0.0436 | 0.0163 | 0.0343 | 0.0151 | 0.044 | 0.0094

main component drawn
Settings | Bliss interaction score
B. subtilis 168 [2] | -0.0674
S. aureus DSM 20231 | 0.165
S. aureus Newman [4] | 0.134
S. pneumoniae D39V [3] | 0.11
